This assay deals with human CB1 (cannabinoid receptor 1) (Homo sapiens, UniProt P21554). As to the kind of experiment: CB1 receptor inhibition effect: calcium ion influx assay (Fluo-4 NW) in Chem-1 cells after 1 μM R-(+)-WIN55212-2. It is filed as cell-based. As to conditions: calcium ion influx in Chem-1 cells expressing human CB1, 1 μM R-(+)-WIN55212-2. Put shortly: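 Chem-1 cells stably expressing human CB1 were exposed to compound (0.5% DMSO) for 10 minutes in HBSS/HEPES/probenecid, then stimulated with 1 μM R-(+)-WIN55212-2. Fluo-4 calcium flux was recorded for 80 s. Percent inhibition was calculated from max−min RFU relative to agonist-only and blank wells.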
Sequence of human CB1 (cannabinoid receptor 1) (P21554 whole entry): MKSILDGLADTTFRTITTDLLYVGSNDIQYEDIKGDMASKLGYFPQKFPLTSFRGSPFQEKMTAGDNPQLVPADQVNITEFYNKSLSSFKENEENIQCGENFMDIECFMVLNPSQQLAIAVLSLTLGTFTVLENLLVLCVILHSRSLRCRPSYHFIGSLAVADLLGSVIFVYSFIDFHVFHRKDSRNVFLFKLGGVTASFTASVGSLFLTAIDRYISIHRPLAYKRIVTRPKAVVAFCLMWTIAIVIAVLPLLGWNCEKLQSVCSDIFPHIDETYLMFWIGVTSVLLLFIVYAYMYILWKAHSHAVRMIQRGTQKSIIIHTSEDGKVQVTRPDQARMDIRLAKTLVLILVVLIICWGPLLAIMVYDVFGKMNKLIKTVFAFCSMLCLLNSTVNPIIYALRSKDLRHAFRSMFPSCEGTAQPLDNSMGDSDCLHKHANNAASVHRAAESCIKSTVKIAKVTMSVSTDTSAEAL

Each structure is given as a SMILES string.

On to `COc1cccc(-c2cc(N3CCC[C@H]3CO)nc3c(-c4ccc(C)cc4)c(C)nn23)c1` [Example 25, (S)-(1-(3-(4-methylphenyl)-7-(3-methoxyphenyl)-2-methylpyrazolo[1,5-a]pyrimidin-5-yl)pyrrolidin-2-yl)methanol], for which the IC50 is 39 nM.

With `Cc1nn2c(-c3cccc(Cl)c3)cc(N3CCC[C@H]3CO)nc2c1-c1ccc(C(F)(F)F)cc1` [Example 173], the IC50 is 250 nM.

Turning to `Cc1nn2c(-c3cccc(C(F)(F)F)c3)cc(N3CCC[C@H]3CO)nc2c1-c1ccc(F)cc1` [Example 139], the half-maximal inhibitory concentration (IC50) turned out to be 140 nM.

For `COCc1nn2c(-c3cccc(C)c3)cc(N3CCC[C@H]3CO)nc2c1-c1ccc(Cl)cc1` [Example 234], the IC50 was 15 nM.

Turning to `CCCOc1ccc(-c2c(C)nn3c(-c4cccc(C(F)(F)F)c4)cc(N4CCC[C@H]4CO)nc23)cc1` [Example 133], the IC50 is 280 nM.

Turning to `Cc1nn2c(-c3ccccc3)cc(N3CCC[C@H]3CO)nc2c1-c1ccc(Cl)cc1` [Example 5], the IC50 came out at 96 nM.

`Cc1cccc(-c2cc(N3CCC[C@H]3CO)nc3c(-c4ccc(Cl)cc4)c(C)nn23)c1` [Example 12]: the IC50 worked out at 210 nM.

With `CSc1ccc(-c2c(C)nn3c(-c4cccc(C)c4)cc(N4CCC[C@H]4CO)nc23)cc1` [Example 162], the IC50 came out at 110 nM.

With `Cc1ccc(-c2c(C)nn3c(-c4ccc(Cl)cc4)cc(N4CCC[C@H]4CO)nc23)cc1` [Example 32], the IC50 is 140 nM.

Take `Cc1ccc(-c2cnn3c(-c4ccc(F)c(F)c4)cc(N4CCC[C@H]4CO)nc23)cc1` [Example 272]: the IC50 was 690 nM.

`CCOCc1nn2c(-c3cccc(C)c3)cc(N3CCC[C@H]3CO)nc2c1-c1ccc(OC)cc1` [Example 220]: the IC50 was 30 nM.

On to `COc1ccc(-c2c(C)nn3c(-c4ccc(F)c(F)c4)cc(N4CCC[C@H]4CO)nc23)cc1F` [Example 187], for which the IC50 was 390 nM.

As to `CCc1cccc(-c2cc(N3CCC[C@H]3CO)nc3c(-c4ccc(Cl)cc4)c(C)nn23)c1` [Example 14], the IC50 is 90 nM.

Regarding `Cc1nn2c(-c3cccc(F)c3)cc(N3CCC[C@H]3CO)nc2c1-c1ccc(C(F)F)cc1` [Example 114], the IC50 is 77 nM.

With `COCc1nn2c(-c3cccc(C)c3)cc(N3CCC[C@H]3CO)nc2c1-c1ccc(OC)cc1` [Example 227], the IC50 was 48 nM.

Turning to `COCc1nn2c(-c3ccc(F)cc3)cc(N3CCC[C@H]3CO)nc2c1-c1ccc(Cl)cc1` [Example 231], the IC50 turned out to be 7 nM.

For `CCOCc1nn2c(-c3cccc(C(F)(F)F)c3)cc(N(C)CCO)nc2c1-c1ccc2c(c1)OCO2` [Example 253], the IC50 was 190 nM.

Take `Cc1ccc(-c2c(C)nn3c(-c4ccc(F)cc4F)cc(N4CCC[C@H]4CO)nc23)cc1` [Example 34]: the IC50 turned out to be 220 nM.

For `CCOCc1nn2c(-c3ccc(F)cc3)cc(NCCO)nc2c1-c1ccc(C)cc1` [Example 263, 2-[2-ethoxymethyl-7-(4-fluorophenyl)-3-(4-methylphenyl)-pyrazolo[1,5-a]pyrimidin-5-yl-amino]ethanol], the IC50 is 90 nM.

Take `Cc1nn2c(-c3cccc(F)c3)cc(N3CCC[C@H]3CO)nc2c1-c1ccc(C(F)(F)F)cc1` [Example 115]: the IC50 was determined as 140 nM.

Turning to `CCCOc1ccc(-c2c(C)nn3c(-c4cccc(F)c4)cc(N4CCC[C@H]4CO)nc23)cc1` [Example 119], the IC50 is 450 nM.

With `Cc1nn2c(-c3cccc(F)c3)cc(N3CCC[C@H]3CO)nc2c1-c1ccc2c(c1)OCO2` [Example 113], the IC50 came to 49 nM.

Consider `Cc1cccc(-c2cc(N3CCC[C@H]3CO)nc3c(-c4ccc(OC(F)(F)F)cc4)c(C)nn23)c1` [Example 168], for which the IC50 turned out to be 450 nM.

As for `Cc1nn2c(-c3ccc(F)cc3)cc(N3CCC[C@H]3CO)nc2c1-c1ccc(C#N)cc1` [Example 106], the IC50 was determined as 250 nM.

On to `Cc1nn2c(-c3ccc(F)cc3)cc(N3CCC[C@H]3CO)nc2c1-c1ccccc1` [Example 83], for which the IC50 was 220 nM.

With `Cc1nn2c(-c3ccc(Cl)cc3)cc(N3CCC[C@H]3CO)nc2c1-c1ccc(Cl)cc1` [Example 15], the IC50 worked out at 350 nM.

Usually IC50 stands for the concentration at which inhibition is half-maximal.

For the origin of these results see patent US8975264B2, “Compound acting as a cannabinoid receptor-1 inhibitor” (Amorepacific Corporation, priority 2010, dated 2015).
